Legend:
[1] = target: T1, hFASN enzyme (full length) (Homo sapiens, UniProt P49327); test: Fatty Acid Synthase (FASN) Inhibition Scintillation Proximity Assay; type: biochemical; details: for IC50: mean where tested more than once, ~ = standard error of pIC50 larger than 0.5; for inhibition at 10 µM: read-out: FASN % Effect @1E−05M
T1 construct: 10 μL hFASN enzyme (full length, 300 ng, purified in house); made in house
Summary of the method: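 Purified full-length human FASN (300 ng) incubated 60 min at room temperature with NADPH, [3H]-acetyl-CoA and malonyl-CoA in 100 mM KH2PO4 pH 7.5, 1 mM DTT; compound at 30 μM to 0.01 μM. [3H]-palmitate captured by SPA imaging beads; IC50 from 4-parameter fit, reported as pIC50.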

[2] = target: T2, FASN Keto-reductase Domain (Homo sapiens, UniProt P49327); test: Fatty Acid Synthase Keto-Reductase Domain (FASN KR) Inhibition; type: biochemical; details: mean where tested more than once; read-out: FASN K-R Domain pIC50 (converted)
T2 construct: 10 μL hFASN enzyme (full length, 300 ng, purified in house) and 360 μM NADPH; made in house
Summary of the method: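 Full-length human FASN (300 ng) in 100 mM KH2PO4 pH 7.5 with 360 μM NADPH and 180 mM ethyl acetoacetate (stock); A340 decrease read over 20 min at room temperature.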

A2780 ovarian cells [3] = test: A2780 Ovarian Cell Proliferation Assay in Lipid Reduced Medium, without Palmitate; type: cell-based; details: Homo sapiens, A2780; lipid reduced medium, without palmitate, 96 h, MTT; read-out: Proliferation A2780 w/o Palmitate pIC50 (converted)
Summary of the method: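 A2780 cells were seeded in 10% FCS medium and switched next day to 10% lipid-reduced serum without palmitate. Compounds at 0.01–30 μM were added with 0.2% DMSO, 0.2% fatty-acid-free BSA and 0.25% ethanol final. After 96 h, MTT absorbance at 544 nm was normalized to plate controls, and IC50/pIC50 came from a 4-parameter logistic fit.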

A2780 ovarian cells [4] = test: A2780 Ovarian Cell Proliferation Assay in Lipid Reduced Medium, with Palmitate (control); type: cell-based; details: Homo sapiens, A2780; lipid reduced medium, 25 μM palmitate, 96 h, MTT; read-out: Proliferation A2780 with Palmitate pIC50 (converted)
Summary of the method: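 A2780 cells were seeded in RPMI1640 with 10% FCS, then switched next day to medium with 10% lipid-reduced serum. Compound was added with final 25 μM palmitate, 0.2% fatty-acid-free BSA and 0.2% DMSO, and incubated 96 h at 37 °C. Read-out was MTT absorbance at 544 nm; pIC50 = −log(IC50) from curve fit.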

T1 sequence (P49327 whole entry): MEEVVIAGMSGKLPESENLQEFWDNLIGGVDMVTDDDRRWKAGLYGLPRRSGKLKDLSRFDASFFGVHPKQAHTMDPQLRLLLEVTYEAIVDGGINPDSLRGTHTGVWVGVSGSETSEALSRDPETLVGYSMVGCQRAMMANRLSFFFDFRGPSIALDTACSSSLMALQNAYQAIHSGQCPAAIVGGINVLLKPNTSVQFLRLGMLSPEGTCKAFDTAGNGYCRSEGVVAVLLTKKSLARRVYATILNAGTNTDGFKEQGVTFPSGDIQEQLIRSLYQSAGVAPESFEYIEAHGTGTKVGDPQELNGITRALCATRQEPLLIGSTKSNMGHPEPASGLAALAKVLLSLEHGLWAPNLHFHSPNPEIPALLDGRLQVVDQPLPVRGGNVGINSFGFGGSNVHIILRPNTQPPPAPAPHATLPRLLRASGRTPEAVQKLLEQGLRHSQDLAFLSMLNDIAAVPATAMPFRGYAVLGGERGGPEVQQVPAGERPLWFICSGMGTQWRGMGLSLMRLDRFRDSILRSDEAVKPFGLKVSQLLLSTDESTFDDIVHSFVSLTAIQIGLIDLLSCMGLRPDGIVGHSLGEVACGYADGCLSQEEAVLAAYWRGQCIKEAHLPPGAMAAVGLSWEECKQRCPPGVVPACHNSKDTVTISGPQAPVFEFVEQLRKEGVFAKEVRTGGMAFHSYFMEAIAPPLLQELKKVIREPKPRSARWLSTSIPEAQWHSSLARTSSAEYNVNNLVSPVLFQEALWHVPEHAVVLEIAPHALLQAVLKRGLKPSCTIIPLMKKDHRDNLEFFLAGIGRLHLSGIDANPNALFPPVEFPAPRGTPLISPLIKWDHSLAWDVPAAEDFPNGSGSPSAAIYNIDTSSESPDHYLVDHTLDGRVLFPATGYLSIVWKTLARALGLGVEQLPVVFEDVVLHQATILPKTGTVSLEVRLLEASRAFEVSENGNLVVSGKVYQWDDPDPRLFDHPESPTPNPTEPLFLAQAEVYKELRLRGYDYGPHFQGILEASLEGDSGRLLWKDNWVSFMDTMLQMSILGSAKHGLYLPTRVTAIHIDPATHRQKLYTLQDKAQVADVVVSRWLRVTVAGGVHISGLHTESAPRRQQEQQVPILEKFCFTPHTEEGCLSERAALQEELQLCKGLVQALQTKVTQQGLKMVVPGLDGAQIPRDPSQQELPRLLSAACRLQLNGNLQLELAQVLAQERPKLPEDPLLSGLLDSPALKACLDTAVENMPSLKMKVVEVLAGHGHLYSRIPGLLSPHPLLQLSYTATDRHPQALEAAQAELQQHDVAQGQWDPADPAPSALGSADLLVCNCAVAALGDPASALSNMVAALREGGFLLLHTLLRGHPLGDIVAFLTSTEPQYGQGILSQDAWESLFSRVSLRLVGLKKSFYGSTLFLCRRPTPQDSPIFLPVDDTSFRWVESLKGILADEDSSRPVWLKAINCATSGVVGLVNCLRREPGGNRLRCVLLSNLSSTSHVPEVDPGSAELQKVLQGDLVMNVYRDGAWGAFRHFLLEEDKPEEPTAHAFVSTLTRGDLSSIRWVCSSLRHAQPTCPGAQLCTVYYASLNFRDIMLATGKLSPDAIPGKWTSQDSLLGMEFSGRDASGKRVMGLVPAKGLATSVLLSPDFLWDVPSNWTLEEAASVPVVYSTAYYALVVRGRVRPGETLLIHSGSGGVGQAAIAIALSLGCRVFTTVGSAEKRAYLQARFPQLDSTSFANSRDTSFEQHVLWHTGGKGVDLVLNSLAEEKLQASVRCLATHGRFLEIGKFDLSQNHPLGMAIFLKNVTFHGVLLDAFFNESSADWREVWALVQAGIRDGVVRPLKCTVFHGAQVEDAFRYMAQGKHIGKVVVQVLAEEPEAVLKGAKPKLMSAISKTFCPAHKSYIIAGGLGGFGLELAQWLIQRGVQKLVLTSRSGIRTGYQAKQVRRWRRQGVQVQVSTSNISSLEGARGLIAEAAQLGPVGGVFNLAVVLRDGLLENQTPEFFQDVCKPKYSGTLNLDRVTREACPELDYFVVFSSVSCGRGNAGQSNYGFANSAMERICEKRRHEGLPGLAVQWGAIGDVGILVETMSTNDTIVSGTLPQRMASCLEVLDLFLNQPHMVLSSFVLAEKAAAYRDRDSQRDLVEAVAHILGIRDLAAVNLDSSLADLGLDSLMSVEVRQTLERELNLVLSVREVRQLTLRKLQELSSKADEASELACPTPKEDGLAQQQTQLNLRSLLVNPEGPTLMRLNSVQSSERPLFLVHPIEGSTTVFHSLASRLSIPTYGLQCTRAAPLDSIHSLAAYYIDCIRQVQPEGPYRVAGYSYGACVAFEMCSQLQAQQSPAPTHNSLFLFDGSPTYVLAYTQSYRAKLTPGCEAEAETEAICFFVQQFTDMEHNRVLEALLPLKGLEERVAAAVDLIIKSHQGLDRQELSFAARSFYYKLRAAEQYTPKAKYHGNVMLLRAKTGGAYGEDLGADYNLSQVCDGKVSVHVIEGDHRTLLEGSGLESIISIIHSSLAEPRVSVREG
T2 sequence (P49327 whole entry, the tested form may be a part): as the sequence (P49327 whole entry) above

Row | IC50 [1] [nM] | inhibition at 10 µM [1] [%] | IC50 [2] [nM] | IC50 (A2780 ovarian cells [3]) [nM] | IC50 (A2780 ovarian cells [4]) [nM] | Structure (SMILES)
1 | 110 | 98 | 309 | 288 | > 10000 | CCCCC(C)N1CCC(C(=O)Nc2cc(C(=O)N3CCC(c4ccc(-c5cnn(C)c5)cc4)CC3)ccc2C)C1 (stereo not shown) [Compound 197, 1-(hexan-2-yl)-N-(2-methyl-5-(4-(4-(1-methyl-1H-pyrazol-4-yl)phenyl)piperidine-1-carbonyl)phenyl)pyrrolidine-3-carboxamide]
2 | 214 | 86 | 380 | 513 | 933 | COc1cccc(-c2ccc(C3CCN(C(=O)c4ccc(C)c(NC(=O)c5ccc(NC(C)C)nc5)c4)CC3)cc2)c1 [Compound 201, 6-(isopropylamino)-N-(5-(4-(3′-methoxy-[1,1′-biphenyl]-4-yl)piperidine-1-carbonyl)-2-methylphenyl)nicotinamide]
3 | 282 | 97 | 977 | 372 | > 10000 | Cc1ccc(C(=O)N2CCC(c3ccc(-c4cnn(C)c4)cc3)C2)cc1NC(=O)c1ccc(Cl)nc1 (stereo not shown) [Compound 203, 6-chloro-N-(2-methyl-5-(3-(4-(1-methyl-1H-pyrazol-4-yl)phenyl)pyrrolidine-1-carbonyl)phenyl)nicotinamide]
4 | 129 | 107 | 398 | 107 | > 10000 | Cc1ccc(C(=O)N2CCC(c3ccc(-c4cnn(C)c4)cc3)C2)cc1NC(=O)c1ccc(N2CCOCC2)nc1 (stereo not shown) [Compound 204, N-(2-methyl-5-(3-(4-(1-methyl-1H-pyrazol-4-yl)phenyl)pyrrolidine-1-carbonyl)phenyl)-6-morpholinonicotinamide]
5 | 269 | 95 | 589 | 355 | > 10000 | CCN1CC(C(=O)Nc2cc(C(=O)N3CCC(c4ccc(-c5cnn(C)c5)cc4)CC3)ccc2C)C1 [Compound 205, 1-ethyl-N-(2-methyl-5-(4-(4-(1-methyl-1H-pyrazol-4-yl)phenyl)piperidine-1-carbonyl)phenyl)azetidine-3-carboxamide]
6 | 158 | 99 | 457 | 151 | > 10000 | Cc1ccc(C(=O)N2CCC(c3ccc(-c4cnn(C)c4)cc3)CC2)cc1NC(=O)C1CN(C(C)C)C1 [Compound 206, 1-isopropyl-N-(2-methyl-5-(4-(4-(1-methyl-1H-pyrazol-4-yl)phenyl)piperidine-1-carbonyl)phenyl)azetidine-3-carboxamide]

Continued, molecule first:

Row | Structure (SMILES) | IC50 [1] [nM] | inhibition at 10 µM [1] [%] | IC50 [2] [nM] | IC50 (A2780 ovarian cells [3]) [nM] | IC50 (A2780 ovarian cells [4]) [nM]
7 | Cc1ccc(C(=O)N2CCC(c3ccc(-c4cnn(C)c4)cc3)CC2)cc1NC(=O)C1CCN(CCC(C)C)C1 (stereo not shown) [Compound 195, 1-isopentyl-N-(2-methyl-5-(4-(4-(1-methyl-1H-pyrazol-4-yl)phenyl)piperidine-1-carbonyl)phenyl)pyrrolidine-3-carboxamide] | 69.2 | 101 | 191 | 110 | 9120
8 | CCCCC(C)N1CC(C(=O)Nc2cc(C(=O)N3CCC(c4ccc(-c5cnn(C)c5)cc4)CC3)ccc2C)C1 (stereo not shown) [Compound 196, 1-(hexan-2-yl)-N-(2-methyl-5-(4-(4-(1-methyl-1H-pyrazol-4-yl)phenyl)piperidine-1-carbonyl)phenyl)azetidine-3-carboxamide] | 162 | 97 | 282 | 407 | ~6170
9 | Cc1ccc(C(=O)N2CCC(c3ccc(-c4cnn(C)c4)cc3)CC2)cc1NC(=O)c1nccs1 [Compound 198, N-(2-methyl-5-(4-(4-(1-methyl-1H-pyrazol-4-yl)phenyl)piperidine-1-carbonyl)phenyl)thiazole-2-carboxamide] | 135 | 100 | 372 | 603 | > 10000
10 | COc1ccc(-c2ccc(C3CCN(C(=O)c4ccc(C)c(NC(=O)c5ccc(NC(C)C)nc5)c4)CC3)cc2)cc1 [Compound 199, 6-(isopropylamino)-N-(5-(4-(4′-methoxy-[1,1′-biphenyl]-4-yl)piperidine-1-carbonyl)-2-methylphenyl)nicotinamide] | ~676 | 59 | 724 | 562 | 617
11 | COc1ccccc1-c1ccc(C2CCN(C(=O)c3ccc(C)c(NC(=O)c4ccc(NC(C)C)nc4)c3)CC2)cc1 [Compound 200, 6-(isopropylamino)-N-(5-(4-(2′-methoxy-[1,1′-biphenyl]-4-yl)piperidine-1-carbonyl)-2-methylphenyl)nicotinamide] | 646 | 86 | 646 | 708 | 4570
12 | COc1ccc(C(=O)N2CC(c3ccc(-c4cnn(C)c4)cc3)C2)cc1NC(=O)c1ccc(NC(C)C)nc1 [Compound 202, 6-(isopropylamino)-N-(2-methoxy-5-(3-(4-(1-methyl-1H-pyrazol-4-yl)phenyl)azetidine-1-carbonyl)phenyl)nicotinamide] | 52.5 | 113 | 151 | 58.9 | > 10000
13 | Cc1ccc(C(=O)N2CCC(c3ccc(-c4cnn(C)c4)cc3)CC2)cc1NC(=O)C1CCN(C(C)C)C1 (stereo not shown) [Compound 207, 1-isopropyl-N-(2-methyl-5-(4-(4-(1-methyl-1H-pyrazol-4-yl)phenyl)piperidine-1-carbonyl)phenyl)pyrrolidine-3-carboxamide] | 132 | 105 | 479 | 182 | > 10000
14 | CCCN1CC(C(=O)Nc2cc(C(=O)N3CCC(c4ccc(-c5cnn(C)c5)cc4)CC3)ccc2C)C1 [Compound 208, N-(2-methyl-5-(4-(4-(1-methyl-1H-pyrazol-4-yl)phenyl)piperidine-1-carbonyl)phenyl)-1-propylazetidine-3-carboxamide] | 269 | 101 | 631 | 275 | > 10000
15 | Cc1ccc(C(=O)N2CCC(c3ccc(-c4cnn(C)c4)cc3)CC2)cc1NC(=O)C1CCN(C2CCC2)CC1 [Compound 209, 1-cyclobutyl-N-(2-methyl-5-(4-(4-(1-methyl-1H-pyrazol-4-yl)phenyl)piperidine-1-carbonyl)phenyl)piperidine-4-carboxamide] | 31.6 | 105 | 74.1 | 10 | > 10000
16 | Cc1ccc(C(=O)N2CCC(c3ccc(-c4cnn(C)c4)cc3)CC2)cc1NC(=O)C1CN(CC(C)C)C1 [Compound 210, 1-isobutyl-N-(2-methyl-5-(4-(4-(1-methyl-1H-pyrazol-4-yl)phenyl)piperidine-1-carbonyl)phenyl)azetidine-3-carboxamide] | 85.1 | 108 | 309 | 110 | > 10000
17 | CCCCN1CCC(C(=O)Nc2cc(C(=O)N3CCC(c4ccc(-c5cnn(C)c5)cc4)CC3)ccc2C)CC1 [Compound 211, 1-butyl-N-(2-methyl-5-(4-(4-(1-methyl-1H-pyrazol-4-yl)phenyl)piperidine-1-carbonyl)phenyl)piperidine-4-carboxamide] | 31.6 | 113 | 74.1 | 18.6 | > 10000

— patent publication US9562035B2, “Benzamide derivative useful as FASN inhibitors for the treatment of cancer” (Janssen Pharmaceutica NV, priority 2013, dated 2017)
